In patent publication US20150250911A1, “MALODOR COUNTERACTING COMPOSITIONS” (GIVAUDAN, S.A., priority 2012, published 2015):

Experiments:
[1] = Sensory tests of compounds of formula (I) against 4 malodour compounds; set-up: species or system human; key: ++++: no malodour present/strong reduction in malodour; +++: medium reduction in malodour; ++: weak malodour reduction; +: no change from control; ◯: worse than control; settings: reference malodour sample scored +
Protocol: (§1) Sensory studies were performed in 120 ml Beetson jar. The test compounds were prepared in DEP (=Diethylphtalate) and pipetted onto a desized woven cotton piece of cloth placed at the bottom of a jar. Where two or more compounds were tested in the same jar, they were applied to separate areas of the cotton cloth. Prior the first assessment and between assessments, the jars were incubated at room temperature for one hour so that the headspace did reach equilibrium.
The same procedures as described in Example 5 have been followed.
The compounds of formula (I) were assessed by the trained volunteers against 4 malodour compounds, namely isovaleric acid, dimethyl disulfide, 2-methyl-3-mercaptobutan-1-ol, and 3-hydroxy-3-methyl hexanoic acid.
For the sensory test, participants were given the reference malodour sample and were told that this scored+on a scale as indicated below. They were then asked to assess and score the test jars in the specified sequence, with a 20 second gap between jars. The jars were given to the assessors blind in random permutations, with each volunteer smelling all permutations in duplicate.
The following score scale was used:
++++: no malodour present/strong reduction in malodour +++: medium reduction in malodour ++: weak malodour reduction +: no change from control ◯: worse than control

[2] = Sensory study in jars: malodour score by trained volunteers, IVA malodour; set-up: species or system human; settings: 0-5 scale (4 = no change from control); IVA (50 ul @ 0.06%) and 200 ul ORIVOL @0.1%
Protocol: as §1
(§2) Sensory studies were performed following the procedure described in Example 5. For the sensory test, participants were given a reference malodour sample (comprising the same ingredients as the jars with the maldodour) and were told that this scored 4 on a 0-5 scale. They were then asked to assess and score three test jars on a 0-5 scale in the specified sequence, with a 20 second gap between jars. The jars were given to the assessors blind in random permutations, with each volunteer smelling all three permutations in duplicate.
(§3) 0: no malodour present 1: strong reduction in malodour 2 medium reduction in malodour 3: weak malodour reduction 4: no change from control 5: worse than control
(§4) Approx. 20 trained volunteers did participate in each study twice.

[3] = Sensory study in jars: malodour score by trained volunteers, DMDS malodour; set-up: species or system human; settings: for Malodour Score (arith. means): 0-5 scale (4 = no change from control)
Protocol: as §1
as §2, with “For” for “Sensory studies were performed following the procedure described in Example 5. For”, “the jar” for “the jars”, “the malodour)” for “the maldodour)”
as §3, §4

[4] = Sensory study in jars: malodour score by trained volunteers, HMHA malodour; set-up: species or system human; settings: 0-5 scale (4 = no change from control); HMHA (50 ul @ 0.01%) and 200 ul ORIVOL @ 0.1%
Protocol: as §1, §2, §3, §4

[5] = Sensory study in jars: malodour score by trained volunteers, MO malodour; set-up: species or system human
Protocol: as §1, §2, §3, §4

Row | SMILES | Sensory score [1] | also measured
1 | CC(CO)CC1CCC(C(C)C)CC1 (stereo not shown) [Compound 5.1] | ++++ | –
2 | CC(C)C1CCCC(C(C)C(C)CO)C1 (stereo not shown) [Compound 5.2, 3-(3-isopropylcyclohexyl)-2-methylbutan-1-ol] | ++++ | –
3 | CC(CO)CC1CCCC(C(C)(C)C)C1 (stereo not shown) [Compound 5.3, 3-(3-tert-butylcyclohexyl)-2-methylpropan-1-ol] | ++++ | –
4 | CCC(C)(C)C1CCC(O)CC1 (stereo not shown) [Compound 5.4] | ++++ | –
5 | OC1CCCCCCCCCCC1 [Compound 5.5] | +++ | –
6 | CC(C)CC1CCC(CC(C)CO)CC1 (stereo not shown) [Compound 5.6, 3-(4-isobutylcyclohexyl)-2-methylpropan-1-ol] | +++ | –
7 | OC1CCC(C2CCCCC2)CC1 (stereo not shown) [Compound 5.7] | +++ | –
8 | OC1CCCCCCCCCC1 [Compound 5.9] | +++ | –
9 | OC1CCCCCCCCCCCC1 [Compound 5.10] | ++++ | –
10 | CC1(O)CCCCCCCCCCCC1 [Compound 5.11] | ++++ | –
11 | OC1CCCCCCCCCCCCCC1 [Compound 5.12] | ++++ | –
12 | CCC(C)(C)C1CCC(O)CC1 (stereo not shown) [ORIVOL, 4-(tert-pentyl)cyclohexanol] | – | Malodour Score (arith. means) [2]: 2.733; Malodour Score (arith. means) ([3]; DMDS 50 ul @ 0.5% and 200 ul ORIVOL @0.1%): 2.862; Malodour Score (arith. means) ([3]; DMDS (50 ul @ 0.06%) and 200 ul ORIVOL): 0.91; Malodour Score (arith. means) ([3]; DMDS (50 ul @ 0.5%) and 200 ul ORIVOL): 1.46; reduction on malodour perceivable by the human nose compared to the malodour taken alone ([3]; DMDS, Table 1, even at very low concentrations): significant reduction; Malodour Score (arith. means) [4]: 2.194; Malodour Score (arith. means) ([5]; 0-5 scale (4 = no change from control), MO (50 ul @ 0.005%) and 200 ul ORIVOL @ 0.1%): 2.375; reduction on malodour perceivable by the human nose compared to the malodour taken alone ([5]; MO, IVA and HMHA, Table 2): significant reduction
